# Source: patent US20250205344A1, “2,4-DIOXOTETRAHYDROPYRIMIDINYL DERATIVES AS DEGRONS IN PROTACS” (GLAXOSMITHKLINE INTELLECTUAL PROPERTY DEVELOPMENT LIMITED, priority 2022, published 2025)
# Counter-ions that a name gives are not always drawn.
# Biological target: T1, Androgen Receptor (Homo sapiens, UniProt P10275, T878A)
# T1 construct: the AR gene was modified, using CRISPR/Cas9 editing, so the expressed AR protein included an 11 amino acid HiBiT tag; endogenous in cells; host or cells: clonal LnCaP-derived line, AR gene edited by CRISPR/Cas9
# T1 sequence (P10275 whole entry T878A): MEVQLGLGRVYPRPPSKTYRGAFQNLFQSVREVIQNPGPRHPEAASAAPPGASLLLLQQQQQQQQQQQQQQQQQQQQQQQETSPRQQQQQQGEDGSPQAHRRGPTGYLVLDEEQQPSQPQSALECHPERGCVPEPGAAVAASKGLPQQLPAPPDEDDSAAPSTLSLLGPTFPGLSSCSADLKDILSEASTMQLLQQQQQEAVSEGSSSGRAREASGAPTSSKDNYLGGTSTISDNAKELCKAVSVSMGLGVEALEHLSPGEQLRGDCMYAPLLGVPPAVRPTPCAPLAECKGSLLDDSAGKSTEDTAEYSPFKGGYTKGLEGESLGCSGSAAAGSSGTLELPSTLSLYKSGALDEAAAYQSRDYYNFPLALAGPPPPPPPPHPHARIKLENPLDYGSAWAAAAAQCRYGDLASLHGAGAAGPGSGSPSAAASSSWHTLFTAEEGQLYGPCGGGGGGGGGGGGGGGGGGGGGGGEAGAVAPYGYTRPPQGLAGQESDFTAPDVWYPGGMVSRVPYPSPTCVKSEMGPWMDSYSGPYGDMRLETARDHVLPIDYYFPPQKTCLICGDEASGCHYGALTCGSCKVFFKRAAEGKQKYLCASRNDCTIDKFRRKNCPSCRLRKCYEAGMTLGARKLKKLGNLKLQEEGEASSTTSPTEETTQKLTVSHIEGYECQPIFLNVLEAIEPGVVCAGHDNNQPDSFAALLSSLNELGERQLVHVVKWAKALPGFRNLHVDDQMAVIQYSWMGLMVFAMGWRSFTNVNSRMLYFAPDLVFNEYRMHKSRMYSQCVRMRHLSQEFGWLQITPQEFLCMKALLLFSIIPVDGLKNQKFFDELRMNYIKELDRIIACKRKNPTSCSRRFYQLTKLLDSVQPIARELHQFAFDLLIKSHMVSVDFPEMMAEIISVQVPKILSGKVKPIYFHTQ
# T1 sequence (Q96SW2 whole entry partner): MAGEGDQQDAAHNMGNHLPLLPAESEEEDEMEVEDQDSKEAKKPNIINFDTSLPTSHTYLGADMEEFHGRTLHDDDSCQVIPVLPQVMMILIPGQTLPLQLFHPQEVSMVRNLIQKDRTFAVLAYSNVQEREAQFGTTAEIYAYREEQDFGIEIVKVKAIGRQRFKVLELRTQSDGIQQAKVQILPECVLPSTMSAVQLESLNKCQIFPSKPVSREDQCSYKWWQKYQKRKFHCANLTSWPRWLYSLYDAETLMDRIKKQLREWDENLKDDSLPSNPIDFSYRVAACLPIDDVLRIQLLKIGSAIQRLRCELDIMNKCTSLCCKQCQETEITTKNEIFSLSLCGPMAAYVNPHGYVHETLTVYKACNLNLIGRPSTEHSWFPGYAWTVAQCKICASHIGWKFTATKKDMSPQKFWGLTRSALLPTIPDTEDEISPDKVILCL
# T1 sequence (Q16531 whole entry partner): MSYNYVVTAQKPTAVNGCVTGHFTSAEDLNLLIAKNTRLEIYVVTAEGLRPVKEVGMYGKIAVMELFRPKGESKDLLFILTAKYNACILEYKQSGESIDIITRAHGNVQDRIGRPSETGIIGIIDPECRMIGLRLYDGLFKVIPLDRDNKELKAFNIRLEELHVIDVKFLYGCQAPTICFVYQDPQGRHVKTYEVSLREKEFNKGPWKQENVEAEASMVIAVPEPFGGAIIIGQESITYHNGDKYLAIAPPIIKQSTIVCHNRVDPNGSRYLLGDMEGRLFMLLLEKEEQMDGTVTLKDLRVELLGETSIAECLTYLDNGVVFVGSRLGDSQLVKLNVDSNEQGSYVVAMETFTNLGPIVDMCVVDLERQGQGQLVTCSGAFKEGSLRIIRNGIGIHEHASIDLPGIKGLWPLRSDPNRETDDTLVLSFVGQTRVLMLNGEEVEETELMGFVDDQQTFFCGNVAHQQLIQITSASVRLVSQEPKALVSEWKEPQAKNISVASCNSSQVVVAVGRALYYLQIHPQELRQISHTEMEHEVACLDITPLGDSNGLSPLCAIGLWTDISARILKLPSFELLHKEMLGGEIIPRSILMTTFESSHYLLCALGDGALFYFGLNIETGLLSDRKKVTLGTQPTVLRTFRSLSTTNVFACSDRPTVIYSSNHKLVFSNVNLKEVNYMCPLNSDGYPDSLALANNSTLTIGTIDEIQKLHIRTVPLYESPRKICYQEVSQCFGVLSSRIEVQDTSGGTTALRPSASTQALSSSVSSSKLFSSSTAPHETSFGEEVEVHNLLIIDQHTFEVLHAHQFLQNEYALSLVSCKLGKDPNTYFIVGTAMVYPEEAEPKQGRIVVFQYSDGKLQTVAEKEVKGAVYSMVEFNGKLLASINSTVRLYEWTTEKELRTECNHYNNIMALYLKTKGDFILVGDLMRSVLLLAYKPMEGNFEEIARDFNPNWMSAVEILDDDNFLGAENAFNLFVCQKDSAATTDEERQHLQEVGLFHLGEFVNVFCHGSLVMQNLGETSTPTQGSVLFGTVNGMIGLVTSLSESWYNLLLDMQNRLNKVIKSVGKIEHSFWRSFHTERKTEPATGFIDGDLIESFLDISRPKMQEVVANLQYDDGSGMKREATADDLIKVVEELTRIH
# Test: Androgen Receptor Degradation Assay (Nano-Glo HiBiT)
# Type: cell-based
# Conditions: HiBiT-tagged AR in human LnCaP cells, 18 h
# Summary of the method: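 LnCaP cells with CRISPR-knocked-in N-terminal HiBiT-tagged AR (10,000/well) treated 18 h at 37 °C with PROTACs over 11 threefold concentrations; lytic HiBiT luminescence normalised to DMSO (0%) and cell-free (100%) controls. Relative DC50 = 4-parameter fit inflection; absolute DC50 = 50% degradation interpolation; Dmax = maximum observed degradation.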
row,SMILES,mean relative pDC50
1,"CC(C)n1ccc2c(N3CCC(=O)NC3=O)cc(C(=O)N3CCN(CCC4CCN(c5ccc(NC(=O)N6C[C@H](C)N(c7ccc(C#N)c(Cl)c7)C[C@H]6C)cn5)CC4)CC3)cc21 [EAR 118, (2R,5S)-4-(3-Chloro-4-cyanophenyl)-N-(6-(4-(2-(4-(4-(2,4-dioxotetrahydropyrimidin-1(2H)-yl)-1-isopropyl-1H-indole-6-carbonyl)piperazin-1-yl)ethyl)piperidin-1-yl)pyridin-3-yl)-2,5-dimethylpiperazine-1-carboxamide]",5.72

# Same assay, conditions: LNCaP, 18 h, HiBiT-tagged AR in human LnCaP cells, read-out: mean asymptote max
row,Dmax,SMILES
1,≥ 50%,"N#Cc1ccc(O[C@H]2CC[C@H](NC(=O)c3ccc(N4CCC(CN5CCC(n6ccc7c(N8CCC(=O)NC8=O)cncc76)CC5)CC4)nn3)CC2)cc1Cl [EAR48, N-((1r,4r)-4-(3-Chloro-4-cyanophenoxy)cyclohexyl)-6-(4-((4-(4-(2,4-dioxotetrahydropyrimidin-1(2H)-yl)-1H-pyrrolo[2,3-c]pyridin-1-yl)piperidin-1-yl)methyl)piperidin-1-yl)pyridazine-3-carboxamide hydrochloride]"
2,≥ 50%,"N#Cc1ccc(O[C@H]2CC[C@H](NC(=O)c3cnc(N4CCC(CN5CCC(n6ccc7c(N8CCC(=O)NC8=O)nccc76)CC5)CC4)cn3)CC2)cc1Cl [EAR182, N-((1r,4r)-4-(3-Chloro-4-cyanophenoxy)cyclohexyl)-5-(4-((4-(4-(2,4-dioxotetrahydropyrimidin-1(2H)-yl)-1H-pyrrolo[3,2-c]pyridin-1-yl)piperidin-1-yl)methyl)piperidin-1-yl)pyrazine-2-carboxamide]"
3,≥ 50%,"N#Cc1ccc(O[C@H]2CC[C@H](NC(=O)c3ccc(N4CCCC(N5CCC(n6ccc7c(N8CCC(=O)NC8=O)cccc76)CC5)C4)cc3)CC2)cc1Cl (stereo partly drawn) [EAR28, N-((1r,4r)-4-(3-Chloro-4-cyanophenoxy)cyclohexyl)-4-(4-(4-(2,4-dioxotetrahydropyrimidin-1(2H)-yl)-1H-indol-1-yl)-[1,3′-bipiperidin]-1′-yl)benzamide]"
4,≥ 50%,"CN(C)C(=O)c1cc(N2CCC(=O)NC2=O)c2ccn(C3CCN(CC4CCN(c5ccc(C(=O)N[C@H]6CC[C@H](Oc7ccc(C#N)c(Cl)c7)CC6)nn5)CC4)CC3)c2c1 [EAR35, 1-(1-((1-(6-(((1r,4r)-4-(3-Chloro-4-cyanophenoxy)cyclohexyl)carbamoyl)pyridazin-3-yl)piperidin-4-yl)methyl)piperidin-4-yl)-4-(2,4-dioxotetrahydropyrimidin-1(2H)-yl)-N,N-dimethyl-1H-indole-6-carboxamide]"

# More lines, now with the values behind:
row,SMILES,Dmax
1,"N#Cc1ccc(O[C@H]2CC[C@H](NC(=O)c3ccc(N4CCC(CN5CCC(n6ccc7c(N8CCC(=O)NC8=O)cncc76)CC5)CC4)nc3)CC2)cc1C(F)(F)F [AR19, N-((1r,4r)-4-(4-Cyano-3-(trifluoromethyl)phenoxy)cyclohexyl)-6-(4-((4-(4-(2,4-dioxotetrahydropyrimidin-1(2H)-yl)-1H-pyrrolo[2,3-c]pyridin-1-yl)piperidin-1-yl)methyl)piperidin-1-yl)nicotinamide]",≥ 50%
2,"N#Cc1ccc(O[C@H]2CC[C@H](NC(=O)c3ccc(N4CCC(CN5CCC(n6ncc7c(N8CCC(=O)NC8=O)cccc76)CC5)CC4)nn3)CC2)cc1C(F)(F)F [EAR44, N-((1r,4r)-4-(4-Cyano-3-(trifluoromethyl)phenoxy)cyclohexyl)-6-(4-((4-(4-(2,4-dioxotetrahydropyrimidin-1(2H)-yl)-1H-indazol-1-yl)piperidin-1-yl)methyl)piperidin-1-yl)pyridazine-3-carboxamide]",≥ 50%
3,"CC(C)n1ccc2c(N3CCC(=O)NC3=O)cc(C(=O)N3CCN(CCC4CCN(c5ccc(NC(=O)N6C[C@H](C)N(c7ccc(C#N)c(Cl)c7)C[C@H]6C)cn5)CC4)CC3)cc21 [EAR 118, (2R,5S)-4-(3-Chloro-4-cyanophenyl)-N-(6-(4-(2-(4-(4-(2,4-dioxotetrahydropyrimidin-1(2H)-yl)-1-isopropyl-1H-indole-6-carbonyl)piperazin-1-yl)ethyl)piperidin-1-yl)pyridin-3-yl)-2,5-dimethylpiperazine-1-carboxamide]",≥ 50%
4,"CC1(C)[C@H](NC(=O)c2ccc(N3CCC(CN4CCC(n5ccc6c(N7CCC(=O)NC7=O)cncc65)CC4)CC3)nc2)C(C)(C)[C@H]1Oc1ccc(C#N)c(Cl)c1 [EAR20, N-((1r,3r)-3-(3-Chloro-4-cyanophenoxy)-2,2,4,4-tetramethylcyclobutyl)-6-(4-((4-(4-(2,4-dioxotetrahydropyrimidin-1(2H)-yl)-1H-pyrrolo[2,3-c]pyridin-1-yl)piperidin-1-yl)methyl)piperidin-1-yl)nicotinamide]",≥ 50%
